Results from patent publication US9938240B2, “Fluorinated derivatives of 3-hydroxypyridin-4-ones” (Apotex Technologies Inc., priority 2009, dated 2018).
Like-named read-outs stand apart in the source and are kept apart here. Each block holds one compound with its values, some of them ahead of it.

Legend:
[1] = Cyclic voltammetry of iron complexes; assay type: physicochemical; details: for E1/2 vs. Ag/AgCl / E1/2 vs. NHE / ΔE / Eox / Ered: 0.1M aqueous NaCl; for E1/2 vs. Ag/AgCl / E1/2 vs. NHE / ΔE: pH 7.4; for Eox / Ered: pH 7.4, vs. Ag/AgCl; for redox potential E1/2 (vs. NHE): pH 7.4, as quoted
[2] = cited from earlier work
[3] = Benzoic acid hydroxylation assay; details: benzoic acid 1 mM, H2O2 6 mM, FeCl3 30 μM, chelator 30 μM, pH 7.4, up to 81 h
Description: Benzoic acid is a hydroxyl radical scavenger and reacts with hydroxyl radical to give 2-hydroxy, 3-hydroxy and 4-hydroxybenzoic acids. The benzoic acid hydroxylation assay is a chemical assay designed to detect damage caused by hydroxyl radical (Dean and Nicholson, Free Radical Research 1994, vol 20, 83-101). For example, deferiprone suppresses the formation of hydroxybenzoic acids in the presence of iron salts and hydrogen peroxide, while EDTA and iron salts allow such hydroxylation reactions to take place.
This screening assay involves the use of iron salt, benzoic acid, hydrogen peroxide and the chelator and measures the ability of the chelator to inhibit the formation of hydroxybenzoate as an indicator to prevent hydroxyl radical formation in living system.
Briefly, this procedure is based on the ability of hydroxyl radicals to hydroxylate benzoate to give 2-, 3- and 4-hydroxylated benzoic acid products. Benzoic acid (1 mM) is incubated over time up to 81 h at room temperature in the dark in 10 mM phosphate buffer (pH 7.4) with 6 mM hydrogen peroxide, ferric chloride (30 μM) and the Fe chelator (30 μM). HPLC is the method of choice used to monitor and quantify the amount of 2-, 3- and 4-hydroxylated products formed over time in the reaction mixture, and can be verified against authentic benzoic acid and its hydroxylated products via their respective retention times and areas under curve. In addition, several controls are used: (i) a control without added Fe stock solution and Fe chelator; (ii) a control without added Fe chelator; (iii) EDTA as positive control; and (iv) deferiprone as negative control. The Fe-EDTA system is a hydroxyl radical generator and is known to promote hydroxylation of benzoic acid.

[4] = system: human neuroblastoma MC-65 cells; assay: cells; details: for EC100 / minimal effective concentration: Homo sapiens, MC65, 48 h; for EC100: read-out: EC100 (maximum effective concentration); for minimal effective concentration: read-out: TH (threshold protective concentration); for CC2 (cytotoxic concentration): MC-65, cultured without tetracycline; for CC2 (cytotoxic concentration) / CC1 (cytotoxic concentration): viability below 80%; for CC1 (cytotoxic concentration): MC-65, presence of TET
Protocol: In this assay, human neuroblastoma cells (MC-65 cells) are genetically engineered to conditionally express amyloid β peptide (Aβ). The Aβ production is suppressed by tetracycline (TET+) presence in culture medium, and its production is activated when TET is withdrawn (TET−). The activation of Aβ production results in cell death “MC-65 suicide”.
Protective effect of compounds against edogenously produced amyloid beta (Aβ) was assessed in human neuroblastoma MC-65 cells. MC-65 cells have been stably transformed to conditionally express high levels of a partial amyloid precursor (AP) fusion protein (Bryce Sopher et al., Brain Res Mol Brain Res. 1994, 207-17.). This protein is further proteolitically processed in the cells to form a set of AP-derived Aβ peptides. […] Activity of the promoter is tightly regulated by the presence of the antibiotic tetracycline (TET) in the culture medium. In the presence of TET (TET+), the promoter is in the basal state and no amyloid beta peptide is synthesized. In the absence of TET (TET−) the promoter is in induced state, resulting in the accumulation of Aβ peptides in the cells, degenerative changes in cell morphology and decreased survival.
Transfected human neuroblastoma cells (MC-65) were cultured in DMEM (ATCC) supplemented with non-essential amino acids and 10% FBS (VWR) in the presence of TET (1 μg/mL). For the experiment, the cells were plated at 35,000 cells/cm^2 and grown for 1 day in the regular culture media prior to compound addition. On the day of the assay, culture supernatant was removed from the wells and cells were thoroughly washed once with the compound incubation matrix containing no FBS and no TET. MC-65 cells were treated with a test compound at pre-determined range of concentrations in a basal medium containing no FBS and in the absence or presence of 1 μg/mL TET for approximately 48 h. Cell viability was then measured using the MTT method.
For data analysis, cell viabilities relative to the control not treated with a test compound and maintained in the presence of TET were plotted against the compound concentration. […] Cytotoxicity of the test compound was assessed in the cells maintained in the presence of TET.

[5] = Oral cassette dosing PK/BBB studies; assay type: in vivo, male Sprague-Dawley rats; details: oral cassette dosing
Protocol: In-vivo pharmacokinetic (PK) and blood brain barrier (BBB) studies were conducted in male Sprague-Dawley rats using cassette dosing via oral administration. […] No. 15, pp. 652-658.

[6] = Distribution coefficient determination, D7.4 (1-octanol / K2HPO4 buffer); assay type: physicochemical; details: 1-octanol / K2HPO4 buffer 50 mM pH 7.4
Protocol: K2HPO4 buffer (50 mM, pH=7.4) and 1-octanol were used as the aqueous phase and the organic phase, respectively. The K2HPO4 buffer and 1-octanol were mixed, and pre-saturated with each other before use.
In a typical experiment, an aqueous solution of Apo6995 (3-hydroxy-2-methyl-1-(2,2,2-trifluoroethyl)pyridin-4(1H)-one) was prepared by weighing out 3 mg of the compound into a 10-mL test-tube. It was then mixed with K2HPO4 buffer (2 mL) and sonicated for 30 minutes with frequent vortexing. The solution was then filtered through HPLC syringe filter (4 mm PVDF syringe filter 0.45 μM) to obtain the aqueous solution.
One mL of this aqueous solution was pipetted out into another 10-mL test-tube and mixed with 1 mL of 1-octanol. The mixture was then vortexed for 1 hour. The solution was centrifuged at 2000 rpm for 10 minutes. A small amount of the lower aqueous layer was carefully pipetted out and analyzed by HPLC to obtain the peak height (HF). The distribution coefficient, D7.4, was calculated using the following equation: D7.4=(HI−HF)/HF.

[7] = system: SH-SY5Y human neuroblastoma cells; details: for CC2 (cytotoxic concentration): H2O2-treated cells, viability below 80%; for CC1 (cytotoxic concentration): absence of H2O2, viability below 80%
Description: Hydrogen peroxide (H2O2) is a major ROS (reactive oxidative species), which causes oxidative stress, and can induce apoptosis in many different cell types. One of the CNS drug design strategies is to use compounds with antioxidant properties as a possible treatment of both acute and chronic neurodegenerative diseases (Kang et al. Bioorganic & Medicinal Chemistry Letters, 2004, 14, 2261-2264). This involves testing the compounds of this invention for their protective effect against oxidative stress-induced cell death in SH-SY5Y human neuroblastoma cells. SH-SY5Y human neuroblastoma cells were cultured in DMEM (ATCC)/F12 (Cellgro) with 10% FBS. The cells were plated at 30,000 cells/cm^2 and grown for 1 day in the regular culture media prior to compound addition. Cells were routinely treated with the test compound, at a pre-determined range of concentrations, in the presence or absence of 50 μM hydrogen peroxide in a basal medium containing no FBS for 16-22 h. Cell viability was then measured using the routine MTT method (Mosmann, T., Rapid Colorimetric Assay for Cellular Growth and Survival: Application to Proliferation and Cytotoxicity Assays”. J. Immunol. Meth. 1983, 65, 55-63).
For data analysis, cell viability relative to control not treated with either H2O2 or the test compound, was plotted against the compound concentration. […] Cytotoxicity of the test compound was assessed in the absence of hydrogen peroxide.

[8] = Pharmacokinetics following oral administration to rats; assay type: in vivo, male Sprague Dawley rats; details: rat, oral 50 mg/kg in 0.5% CMC; for Brain AUC_D_obs / Brain Cmax_D / Plasma AUC_D_obs / Plasma Cmax_D: dose-normalized
Protocol: Adult male Sprague Dawley rats (275-325 g, Charles River Laboratories, Saint Constant, Quebec) were orally dosed with 50 mg/kg of test compound (Apo7323, Apo7433, Apo7435 or Apo7448) suspended in 0.5% carboxymethylcellulose (CMC) in water. For each test compound, samples were obtained from the plasma and brain of three animals per time point, at 0 (dosed with 0.5% CMC), 0.25, 0.5, 1, 2, 4, 8 and 12 h following administration. The concentration of the compound in rat plasma and brain samples was determined by HPLC-UV. Pharmacokinetic parameters were computed using the PKPlus Module in GastroPlus® ver. 8.0 (Simulations Plus Inc., Lancaster, Calif.). Calculation method: linear trapezoidal with linear interpolation.

E1/2 vs. Ag/AgCl [1]: −698 mV
E1/2 vs. NHE [1]: −478 mV
ΔE [1]: 112 mV
Eox [1]: −642 mV
Ered [1]: −754 mV
redox potential E1/2 (vs. NHE) [1]: −480 my
Compound: CC(=O)N([O-])CCCCCNC(=O)CCC(=O)N([O-])CCCCCNC(=O)CCC(=O)N([O-])CCCCCN.[Fe+3] [FeDFO]
E1/2 literature value ([2]; versus Ag/AgCl, Crumbliss et al. 2003): −688 mV

Compound: CN(C)c1c(O)c(=O)cc(CC(F)(F)F)n1C [Apo7077, 2-(dimethylamino)-3-hydroxy-1-methyl-6-(2,2,2-trifluoroethyl)pyridin-4(1H)-one]
hydroxylation of benzoic acid by Fe chelate [3]: do not promote the hydroxylation of benzoic acid
EC100 [4]: 10 µM
minimal effective concentration [4]: 1 µM
CC2 (cytotoxic concentration) [4]: 80 µM
CC1 (cytotoxic concentration) [4]: 80 µM

Compound: CCc1c(O)c(=O)ccn1CC(F)(F)F [Apo7030, 2-ethyl-3-hydroxy-1-(2,2,2-trifluoroethyl)pyridin-4(1H)-one]
AUC brain* (cal.) ([5]; rats, normalized to 1 mg/kg, value marked (cal.)): 0.59 cal·µg·h/mL
Kp ([5]; rat, brain and plasma, male Sprague-Dawley rats, read-out: AUC brain/AUC plasma): 1
AUC ([5]; rat, plasma, male Sprague-Dawley rats, AUC normalized to 1 mg/kg dose): 590 ng·h/mL
D7.4 [6]: 5.93
logD ([6]; read-out: Log D7.4): 0.77
CC2 (cytotoxic concentration) [7]: >640 µM
CC1 (cytotoxic concentration) [7]: 640 µM
EC100 [4]: 20 µM
minimal effective concentration [4]: 1 µM
CC2 (cytotoxic concentration) [4]: 40 µM
CC1 (cytotoxic concentration) [4]: 40 µM

E1/2 vs. Ag/AgCl [1]: −797 mV
E1/2 vs. NHE [1]: −577 mV
ΔE [1]: 89 mV
Eox [1]: −752 mV
Ered [1]: −841 mV
redox potential E1/2 (vs. NHE) [1]: −628 my
Compound: Cc1c([O-])c(=O)ccn1C.Cc1c([O-])c(=O)ccn1C.Cc1c([O-])c(=O)ccn1C.[Fe+3] [Fe(L1)3]

Compound: Cc1[nH]cc(C(N2CCOCC2)C(F)(F)F)c(=O)c1O (centres unmarked) [Apo7433, 3-hydroxy-2-methyl-5-(2,2,2-trifluoro-1-morpholinoethyl)pyridin-4(1H)-one]
CC2 (cytotoxic concentration) [7]: 320 µM
CC1 (cytotoxic concentration) [7]: 320 µM
EC100 [4]: 10 µM
minimal effective concentration [4]: 1 µM
CC2 (cytotoxic concentration) [4]: 40 µM
CC1 (cytotoxic concentration) [4]: 40 µM
CL [8]: 62.7 mL/min/kg
Brain AUC_D_obs [8]: 0.039 kg·µg·h/mL/mg
Brain Cmax_D [8]: 0.400 kg·µg/mL/mg
Plasma AUC_D_obs [8]: 0.860 kg·µg·h/mL/mg
Plasma Cmax_D [8]: 0.396 kg·µg/mL/mg

Compound: Cn1ccc(=O)c(O)c1C(N1CCOCC1)C(F)(F)F (centres unmarked) [Apo7448, 3-hydroxy-1-methyl-2-(2,2,2-trifluoro-1-morpholinoethyl)pyridin-4(1H)-one]
CC2 (cytotoxic concentration) [7]: 320 µM
CC1 (cytotoxic concentration) [7]: 80 µM
EC100 [4]: 20 µM
minimal effective concentration [4]: 1 µM
CC2 (cytotoxic concentration) [4]: 40 µM
CC1 (cytotoxic concentration) [4]: 40 µM
CL [8]: 52 mL/min/kg
Brain AUC_D_obs [8]: 0.486 kg·µg·h/mL/mg
Brain Cmax_D [8]: 0.178 kg·µg/mL/mg
Plasma AUC_D_obs [8]: 1.07 kg·µg·h/mL/mg
Plasma Cmax_D [8]: 0.334 kg·µg/mL/mg

Compound: Fe-transferrin: iron bound to the blood protein transferrin
E1/2 vs. Ag/AgCl ([2]; background value): −720 my
E1/2 vs. NHE ([2]; background value): −500 my
